The target of the assay is T1, SIRT1 (Homo sapiens, UniProt Q96EB6).
T1 sequence (Q96EB6 1-747): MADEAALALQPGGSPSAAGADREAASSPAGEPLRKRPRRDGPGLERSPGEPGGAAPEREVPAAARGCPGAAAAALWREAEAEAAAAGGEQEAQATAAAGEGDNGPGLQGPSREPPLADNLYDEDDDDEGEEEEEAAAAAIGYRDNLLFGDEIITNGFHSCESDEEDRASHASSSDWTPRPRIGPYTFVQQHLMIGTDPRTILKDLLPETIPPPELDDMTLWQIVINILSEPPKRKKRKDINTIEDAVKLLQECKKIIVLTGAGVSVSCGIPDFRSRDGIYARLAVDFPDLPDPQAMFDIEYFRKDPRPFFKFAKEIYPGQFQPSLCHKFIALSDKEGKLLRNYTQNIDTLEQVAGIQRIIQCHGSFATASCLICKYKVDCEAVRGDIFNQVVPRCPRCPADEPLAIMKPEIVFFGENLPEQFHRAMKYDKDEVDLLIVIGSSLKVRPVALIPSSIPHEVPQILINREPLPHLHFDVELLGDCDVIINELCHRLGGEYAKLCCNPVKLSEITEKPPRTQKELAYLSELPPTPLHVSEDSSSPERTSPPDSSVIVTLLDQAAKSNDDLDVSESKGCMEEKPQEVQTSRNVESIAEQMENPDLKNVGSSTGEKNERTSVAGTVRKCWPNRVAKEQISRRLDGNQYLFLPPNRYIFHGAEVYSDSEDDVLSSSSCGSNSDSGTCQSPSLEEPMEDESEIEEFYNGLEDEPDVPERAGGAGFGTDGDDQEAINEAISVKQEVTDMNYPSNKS
The experiment in a line: Mass spectrometry based assay to identify modulators (activators) of SIRT1 activity. The format is biochemical. The following applies: 0.5 μM peptide substrate, 120 μM βNAD+, 10 nM SIRT1, 25 minutes at 25° C.; for EC1.5: SIRT1 activation. The source says:
A mass spectrometry based assay was used to identify modulators of SIRT1 activity. The mass spectrometry based assay utilizes a peptide having 20 amino acid residues as follows: Ac-EE-K(biotin)-GQSTSSHSK(Ac)NleSTEG-K(5TMR)-EE-NH2 (SEQ ID NO: 1) wherein K(Ac) is an acetylated lysine residue and Nle is a norleucine. The peptide is labeled with the fluorophore 5TMR (excitation 540 nm/emission 580 nm) at the C-terminus. The sequence of the peptide substrate is based on p53 with several modifications. In addition, the methionine residue naturally present in the sequence was replaced with the norleucine because the methionine may be susceptible to oxidation during synthesis and purification.
The mass spectrometry assay is conducted as follows: 0.5 μM peptide substrate and 120 μM βNAD^+ is incubated with 10 nM SIRT1 for 25 minutes at 25° C. in a reaction buffer (50 mM Tris-acetate pH 8, 137 mM NaCl, 2.7 mM KCl, 1 mM MgCl2, 5 mM DTT, 0.05% BSA). Test compounds may be added to the reaction as described above. […] After the 25 minute incubation with SIRT1, 10 μL of 10% formic acid is added to stop the reaction. Reactions are sealed and frozen for later mass spec analysis. Determination of the mass of the substrate peptide allows for precise determination of the degree of acetylation (i.e. starting material) as compared to deacetylated peptide (product).
A control for inhibition of sirtuin activity is conducted by adding 1 μL of 500 mM nicotinamide as a negative control at the start of the reaction (e.g., permits determination of maximum sirtuin inhibition). A control for activation of sirtuin activity is conducted using 10 nM of sirtuin protein, with 1 μL of DMSO in place of compound, to determine the amount of deacetylation of the substrate at a given timepoint within the linear range of the assay. This timepoint is the same as that used for test compounds and, within the linear range, the endpoint represents a change in velocity.
For the above assay, SIRT1 protein was expressed and purified as follows. […] The protein was expressed by induction with 1 mM IPTG as an N-terminal His-tag fusion protein at 18° C. overnight and harvested at 30,000×g. Cells were lysed with lysozyme in lysis buffer (50 mM Tris-HCl, 2 mM Tris[2-carboxyethyl]phosphine (TCEP), 10 μM ZnCl2, 200 mM NaCl) and further treated with sonication for 10 min for complete lysis. The protein was purified over a Ni-NTA column (Amersham) and fractions containing pure protein were pooled, concentrated and run over a sizing column (Sephadex S200 26/60 global). The peak containing soluble protein was collected and run on an Ion-exchange column (MonoQ). Gradient elution (200 mM-500 mM NaCl) yielded pure protein. This protein was concentrated and dialyzed against dialysis buffer (20 mM Tris-HCl, 2 mM TCEP) overnight. The protein was aliquoted and frozen at −80° C. until further use.
Sirtuin modulating compounds that activated SIRT1 were identified using the assay described above and are shown below in Table 1. The EC1.5 values for the activating compounds are represented by A (EC1.5≦1 uM), B (EC1.5>1 and ≦10 uM), or C (EC1.5>10 uM). The percent maximum fold activation is represented by A (Fold activation≧300%), B (Fold Activation≧150% and <300%), or C (Fold Activation<150%).

For `O=C(Nc1ccccc1-c1nc2cccnc2s1)c1nc(-c2ccccc2)sc1CN1CCCC1` [Compound 11, 2-phenyl-5-(pyrrolidin-1-ylmethyl)-N-(2-(thiazolo[5,4-b]pyridin-2-yl)phenyl)thiazole-4-carboxamide], the “FOLD ACT. (percent maximum fold activation)” value is “C (Fold Activation<150%)”; the EC1.5 result was “B (EC1.5>1 and ≦10 uM)”.
For `COCCN1CCN(Cc2cnc3sc(-c4ccccc4NC(=O)c4csc(-c5ccccc5)n4)nc3c2)CC1` [Compound 1, N-(2-(6-((4-(2-methoxyethyl)piperazin-1-yl)methyl)thiazolo[5,4-b]pyridin-2-yl)phenyl)-2-phenylthiazole-4-carboxamide], the “FOLD ACT. (percent maximum fold activation)” value is given as “A (Fold activation≧300%)” and the EC1.5 entry was “A (EC1.5≦1 uM)”.
Turning to `O=C(Nc1ccccc1-c1nc2cc(CN3CCCC3)cnc2s1)c1nc(-c2ccccc2)cs1` [Compound 22, 4-phenyl-N-(2-(6-(pyrrolidin-1-ylmethyl)thiazolo[5,4-b]pyridin-2-yl)phenyl)thiazole-2-carboxamide], the “FOLD ACT. (percent maximum fold activation)” value is “B (Fold Activation≧150% and <300%)”; the EC1.5 result is listed as “A (EC1.5≦1 uM)”.
With `O=C(Nc1ccccc1-c1nc2cccnc2s1)c1nc(-c2ccccc2)oc1CN1CCOCC1` [Compound 18, 5-(morpholinomethyl)-2-phenyl-N-(2-(thiazolo[5,4-b]pyridin-2-yl)phenyl)oxazole-4-carboxamide], the “FOLD ACT. (percent maximum fold activation)” value is listed as “C (Fold Activation<150%)” and the EC1.5 entry was “C (EC1.5>10 uM)”.
As to `O=C(Nc1ccccc1-c1nc2cccnc2s1)c1nc(-c2ccccc2)sc1CCCN1CCOCC1` [Compound 13, 5-(3-morpholinopropyl)-2-phenyl-N-(2-(thiazolo[5,4-b]pyridin-2-yl)phenyl)thiazole-4-carboxamide], the “FOLD ACT. (percent maximum fold activation)” value was “B (Fold Activation≧150% and <300%)”; the EC1.5 result is “A (EC1.5≦1 uM)”.
For the compound `CC(C)(C)OC(=O)N1CCN(Cc2oc(-c3ccccc3)nc2C(=O)Nc2ccccc2-c2nc3cccnc3s2)CC1` [Compound 21, tert-butyl 4-((2-phenyl-4-(2-(thiazolo[5,4-b]pyridin-2-yl)phenylcarbamoyl)oxazol-5-yl)methyl)piperazine-1-carboxylate], the “FOLD ACT. (percent maximum fold activation)” value is “C (Fold Activation<150%)” and the EC1.5 result is recorded as “C (EC1.5>10 uM)”.
As for `COCCN1CCN(Cc2sc(-c3ccccc3)nc2C(=O)Nc2ccccc2-c2nc3cccnc3s2)CC1` [Compound 12, 5-((4-(2-methoxyethyl)piperazin-1-yl)methyl)-2-phenyl-N-(2-(thiazolo[5,4-b]pyridin-2-yl)phenyl)thiazole-4-carboxamide], the “FOLD ACT. (percent maximum fold activation)” value was “A (Fold activation≧300%)” and the EC1.5 result is given as “A (EC1.5≦1 uM)”.
`COCCCc1sc(-c2ccccc2)nc1C(=O)Nc1ccccc1-c1nc2cccnc2s1` [Compound 6, 5-(3-methoxypropyl)-2-phenyl-N-(2-(thiazolo[5,4-b]pyridin-2-yl)phenyl)thiazole-4-carboxamide]: the “FOLD ACT. (percent maximum fold activation)” value was “B (Fold Activation≧150% and <300%)”; the EC1.5 result is “B (EC1.5>1 and ≦10 uM)”.
